Experimental findings from patent US12064459B2, “Compositions and methods for improving skin health and for the treatment and prevention of diseases, disorders and conditions associated with pathogenic microbes” (priority 2019, dated 2024) are described below.

Values after ≈ are worked out from the molar mass of the structure shown. Like-named read-outs stand apart in the source and are kept apart here. Where a SMILES comes first, the peptide text is derived from it. Bridges are numbered along the chain shown (N, C = ends). [ ]: non-standard residue; d: D form. The star is where a group is joined. Ileψ(thiazoline)Cys = CC[C@H](C)[C@H](N)C1=N[C@H](C(=O)*)CS1; dOrn = NCCC[C@@H](N)C(=O)O

Assay [1] concerns DB02378. As to the kind of experiment: Antibiotic MIC tests. Type of assay: cell-based, Janthinobacterium lividum. To be noted: strain DB02378. The protocol: (§1) The antibiotic resistance profile and MICs tests were performed using Janthinobacterium lividum grown from cultures purified and grown in vegitone LB broth.
For assay [2], the system named is DB00121. Nature of the assay: Antibiotic MIC tests. Type of assay: cell-based, Janthinobacterium lividum. Particulars: strain DB00121. The protocol:
as §1

Assay [3] has as its system DB00118. As to the kind of experiment: Antibiotic MIC tests. To be noted: strain DB00118. Type of assay: cell-based, Janthinobacterium lividum. The protocol:
as §1

Assay [4] relates to DB02473. Nature of the assay: Antibiotic MIC tests. To be noted: strain DB02473. Type of assay: cell-based, Janthinobacterium lividum. The protocol: as §1
In assay [5] the test system is E. Coli ATCC25922. As to the kind of experiment: Antibiotic MIC tests. Type of assay: cell-based. To be noted: Escherichia coli.
The subject of assay [6] is Janthinobacterium lividum strains. Nature of the assay: Antibiotic MIC tests, resistance profile in words. Type of assay: cell-based. To be noted: Table 7 and 8. The protocol:
as §1

The test system is the same in assay [7]. Nature of the assay: Internal antibiotic resistance tests (BD BBL Sensi-Disc, zone of inhibition). Type of assay: cell-based. Particulars: all 5 strains; disc content per antibiotic (e.g. penicillin 10 IU); FIG. 5. The protocol:
One Janthinobacterium lividum colony of 3-day old grown in 50% BHI agar was mixed well in 1 ml of 1×PBS buffer, diluted 10× and 100×, respectively. 200 μl of diluted Janthinobacterium lividum cells were evenly plated onto R2A/BHI agar plates in triplicate in 150 mm petri dishes. Antibiotic discs (BD BBL Sensi-Disc antimicrobial susceptibility test discs) were dispensed using a Disc dispenser (BD BBL Sensi-Disc Designer Dispenser System, 12-Place). Plates were incubated for 2-3 days at room temperature and imaged at the end of incubation.
The sensitivity of Janthinobacterium lividum to antibiotics is reflected by a clear zone of inhibition of Janthinobacterium lividum cells surrounding the antibiotic discs. The zone of inhibition was measured using ImageJ and was transformed into cm for analysis.

Setting [8] is: Janthinobacterium lividum, read-out: MIC.

As to `C[C@H]1[C@H](NC(=O)/C(=N\OC(C)(C)C(=O)O)c2csc(N)n2)C(=O)N1S(=O)(=O)O` [Aztreonam], the MIC in assay [1] (setting [8]) came to 16 µg/mL (≈ 36.7 µM); in assay [2] (setting [8]), 16 µg/mL (≈ 36.7 µM); in assay [3] (setting [8]), 32 µg/mL (≈ 73.5 µM); in assay [4] (setting [8]) it was 16 µg/mL (≈ 36.7 µM); in assay [5], 0.25 µg/mL (≈ 0.574 µM). The “sensitivity of Janthinobacterium lividum strains to antibiotics” value (shortened to “sensitivity … to antibiotics”) in assay [6] is on record as “less sensitive”.
On to `CC[C@H](C)[C@H](N)C1=N[C@H](C(=O)N[C@@H](CC(C)C)C(=O)N[C@H](CCC(=O)O)C(=O)N[C@H](C(=O)N[C@H]2CCCCNC(=O)[C@H](CC(N)=O)NC(=O)[C@@H](CC(=O)O)NC(=O)[C@H](Cc3cnc[nH]3)NC(=O)[C@@H](Cc3ccccc3)NC(=O)[C@H]([C@@H](C)CC)NC(=O)[C@@H](CCCN)NC2=O)[C@@H](C)CC)CS1` [Bacitracin] ({Ileψ(thiazoline)Cys}-L[dE]IK[dOrn]I[dF]H[dD]N; lactam 4-C), for which the MIC in assay [1] (setting [8]), in assay [2] (setting [8]), in assay [3] (setting [8]), in assay [4] (setting [8]) and in assay [5] was more than 64 µg/mL throughout. Further, the “sensitivity … to antibiotics” value in assay [6] is given as “resistant”.
On to `O=C(O)c1cn(C2CC2)c2cc(N3CCNCC3)c(F)cc2c1=O` [Ciprofloxacin], for which the minimum inhibitory concentration (MIC) in assay [1] (setting [8]) is 0.5 µg/mL (≈ 1.51 µM); in assay [2] (setting [8]), 0.25 µg/mL (≈ 0.754 µM); in assay [3] (setting [8]), 0.5 µg/mL (≈ 1.51 µM); in assay [4] (setting [8]) it was 0.5 µg/mL (≈ 1.51 µM). The “sensitivity of Janthinobacterium lividum to antibiotic discs” value (“sensitivity … to antibiotic discs” below) in assay [7] was “sensitive”.
Consider `CC[C@H]1OC(=O)[C@H](C)[C@@H](O[C@H]2C[C@@](C)(OC)[C@@H](O)[C@H](C)O2)[C@H](C)[C@@H](O[C@@H]2O[C@H](C)C[C@H](N(C)C)[C@H]2O)[C@](C)(O)C[C@@H](C)C(=O)[C@H](C)[C@@H](O)[C@]1(C)O` [Erythromycin], for which the minimal inhibitory concentration (MIC) in assay [1] (setting [8]) came out at 8 µg/mL (≈ 10.9 µM); in assay [2] (setting [8]) it was 8 µg/mL (≈ 10.9 µM); in assay [3] (setting [8]), 15 µg/mL (≈ 20.4 µM); in assay [4] (setting [8]) it was 15 µg/mL (≈ 20.4 µM); in assay [5] it was 64 µg/mL (≈ 87.2 µM). The “sensitivity … to antibiotic discs” value in assay [7] is “sensitive”.
As to `CN(C)[C@@H]1C(O)=C(C(N)=O)C(=O)[C@@]2(O)C(O)=C3C(=O)c4c(O)cccc4[C@@](C)(O)[C@H]3C[C@@H]12` [Tetracycline], the MIC stood at 0.5 µg/mL (≈ 1.13 µM) in assay [1] (setting [8]); 0.25 µg/mL (≈ 0.563 µM) in assay [2] (setting [8]); 0.5 µg/mL (≈ 1.13 µM) in assay [3] (setting [8]); 0.5 µg/mL (≈ 1.13 µM) in assay [4] (setting [8]); 1 µg/mL (≈ 2.25 µM) in assay [5].
For the compound `CC1(C)S[C@@H]2[C@H](NC(=O)[C@H](N)c3ccccc3)C(=O)N2[C@H]1C(=O)O` [ampicillin], the “sensitivity … to antibiotic discs” value in assay [7] is given as “sensitive”.
On the same count and under the same terms, under `CC(=O)OCC1=C(C(=O)O)N2C(=O)[C@@H](NC(=O)Cc3cccs3)[C@H]2SC1` [cephalothin] stands “sensitive”; under `[H]/N=C(/N)N[C@H]1[C@H](O)[C@@H](O)[C@H](O[C@@H]2O[C@@H](C)[C@](O)(C=O)[C@H]2O[C@@H]2O[C@@H](CO)[C@H](O)[C@@H](O)[C@@H]2NC)[C@@H](N/C(N)=N\[H])[C@@H]1O` [streptomycin], “sensitive”; under `CN[C@H](CC(C)C)C(=O)N[C@H]1C(=O)N[C@@H](CC(N)=O)C(=O)N[C@H]2C(=O)N[C@H]3C(=O)N[C@H](C(=O)N[C@H](C(=O)O)c4cc(O)cc(O)c4-c4cc3ccc4O)[C@H](O)c3ccc(c(Cl)c3)Oc3cc2cc(c3O[C@@H]2O[C@H](CO)[C@@H](O)[C@H](O)[C@H]2O[C@H]2C[C@](C)(N)[C@H](O)[C@H](C)O2)Oc2ccc(cc2Cl)[C@H]1O` [vancomycin], “sensitive”.
With Amoxicillin clavulanate, the MIC in assay [1] is 1 µg/mL; in assay [2], 0.5 µg/mL; in assay [3], 1 µg/mL; in assay [4], 1 µg/mL. For the same compound, the “sensitivity … to antibiotics” value in assay [6] is reported as “less sensitive”.
In the case of penicillin, in assay [7], the “sensitivity … to antibiotic discs” value was “sensitive”.

Usually MIC stands for the least concentration at which growth counts as inhibited.
